This is an account of results in patent US8207227B2, “Disodium salts, monohydrates, and ethanol solvates for delivering active agents” (Emisphere Technologies, Inc., priority 1999, dated 2012).

A short description of data set [1]: Oral delivery of sCT/sodium salt of 5-CNAC in rats; serum sCT by EIA kit, modified protocol. In kind it is in vivo, Sprague-Dawley rats. As to conditions: subcutaneous, sCT 5 mg/kg (so in the source), no delivery agent. The procedure: The rats were administered one of the following: • (4a) orally, one capsule of 13 mg lyophilized powder as prepared as in Example 19 with 0.5 ml of water to flush the capsule down; • (4b) orally, 1.0 ml/kg of a reconstituted aqueous solution of the lyophilized powder prepared in Example 19; • (4c) orally, 1.0 ml/kg of “fresh”, unlyophilized aqueous solution of 5-CNAC sodium salt as prepared in Example 20 with sCT; or • (4d) subcutaneously, 5 mg/kg of sCT.
Doses (4a), (4b) and (4c) contained 50 mg/kg of the sodium salt of 5-CNAC and […] of sCT. Doses for (4a) are approximate because the animals were given one capsule filled with the stated amount of powder based on an average animal weight of 250 g, whereas actual animal weight varied. This is also the case in all later examples where a capsule is dosed.
The reconstituted solution for (4b) was prepared by mixing 150 mg of the lyophilized powder prepared as in Example 19 in 3 ml of water. The reconstituted solution was dosed at […].
The subcutaneous doses were prepared by dissolving 2 mg of sCT in 1 ml water. […]. This solution was dosed at 0.5 ml/kg.
Blood samples were collected serially from the tail artery. […]

The subject of data set [2] is clotting time (APTT). The data set is described as follows: Oral delivery of heparin with SNAC salts; clotting time by activated partial thromboplastin time (APTT). As to conditions: rats, oral gavage, 3 ml/kg, compound 300 mg/kg, heparin 100 mg/kg; baseline about 20 seconds. In kind it is in vivo, Sprague-Dawley rats. How it is done:
Oral gavage (PO) dosing solutions containing heparin sodium USP and either the mono-sodium or di-sodium salt form of the delivery agent compound SNAC were prepared in water. The delivery agent compound and heparin (166.9 IU/mg) were mixed by vortex as dry powders. This dry mixture was dissolved in water, vortexed and sonicated at about 37° C. to produce a clear solution. The pH was not adjusted. The final volume was adjusted to about 10.0 ml. The final delivery agent compound dose, heparin dose and dose volume amounts are listed below in Table 2 below.
The typical dosing and sampling protocols were as follows. […]
Citrated blood samples were collected by cardiac puncture 0.25, 0.5, 1.0 and 1.5 hours after administration. Heparin absorption was verified by an increase in clotting time as measured by the activated partial thromboplastin time (APTT) according to the method of Henry, J. B., Clinical Diagnosis and Management by Laboratory Methods, Philadelphia, Pa., W.B. Saunders (1979). […] Heparin absorption was also verified by an increase in plasma heparin measured by the anti-Factor Xa assay CHROMOSTRATE® Heparin anti-Xa assay, available from Organon Teknika Corporation of Durham, N.C. […]

Data set [3] can be described thus: Oral delivery of heparin with SNAC salts; plasma heparin by anti-Factor Xa assay. The class given is in vivo, Sprague-Dawley rats. The note with it: rats, oral gavage, 3 ml/kg, compound 300 mg/kg, heparin 100 mg/kg. The procedure:
The typical dosing and sampling protocols were as follows. […] The syringe was filled with dosing solution by drawing the solution through the catheter, which was then wiped dry. The catheter was placed down the esophagus leaving 1 cm of tubing past the incisors. Solution was administered by pressing the syringe plunger.

A short description of data set [4]: Oral delivery of low molecular weight heparin (LMWH) with SNAD salts; plasma heparin by anti-Factor Xa assay. As to conditions: rats, 3 ml/kg, compound 300 mg/kg, LMWH dose 3000 (mg/kg). The class given is in vivo, Sprague-Dawley rats. How it is done:
The typical dosing and sampling protocols were as follows. Male Sprague-Dawley rats weighing between 275-350 g were fasted for 24 hours and were anesthetized with ketamine hydrochloride (about 88 mg/kg) intramuscularly immediately prior to dosing and again as needed to maintain anesthesia. A dosing group of ten rats was administered one of the dosing solutions. An 11 cm Rusch 8 French catheter was adapted to a 1 ml syringe with a pipette tip. The syringe was filled with dosing solution by drawing the solution through the catheter, which was then wiped dry. The catheter was placed down the esophagus leaving 1 cm of tubing past the incisors. Solution was administered by pressing the syringe plunger.
Oral dosing (PO) compositions containing low molecular weight heparin (LMWH) and either the mono-sodium or di-sodium salt form of the delivery agent compound SNAD were prepared in water. […]
Citrated blood samples were collected by cardiac puncture 0.5, 1.0, 2.0, 3.0 and 4.0 hours after administration. Heparin absorption was verified by an increase in plasma heparin measured by the anti-Factor Xa assay CHROMOSTRATE® Heparin anti-Xa assay, available from Organon Teknika Corporation of Durham, N.C. Baseline values were determined earlier and found to be about zero IU/ml. […]

Data set [5] is described as follows: Oral delivery of heparin with SNAD salts; plasma heparin by anti-Factor Xa assay. In kind it is in vivo, cynomolgus macaque monkeys. As to conditions: cynomolgus monkeys, about 150 mg/kg delivery agent and 30 mg/kg heparin. How it is done:
The dose for each monkey was about 150 mg/kg of the disodium SNAD ethanol solvate and about 30 mg/kg of heparin. The dosing protocol for administering the capsules to each animal was as follows. […] Water was available throughout the dosing period and 400 ml juice was made available to the animal overnight prior to dosing and throughout the dosing period. The animal was restrained in a sling restraint. A capsule was placed into a “pill gun”, which is a plastic tool with a cocked plunger and split rubber tip to accommodate a capsule. The pill gun was inserted into the esophagus of the animal. The plunger of the pill gun was pressed to push the capsule out of the rubber tip into the esophagus. The pill gun was then retracted. The animal's mouth was held closed and approximately 5 ml reverse osmosis water was administered into the mouth from the side to induce a swallowing reflex. The throat of the animal was rubbed further to induce the swallowing reflex. […] Blood was added to fill the tube to the 1.3 ml line. The tube was then placed on wet ice pending centrifugation. […] Plasma heparin concentrations were determined using the anti-Factor Xa assay CHROMOSTRATE™ heparin anti-Xa assay, available from Organon Teknika Corporation of Durham, N.C. Results from the animals were averaged for each time point. […] Two tablets were dosed to each of approximately 4.0 kg monkeys. […]

As to `CC(C)C[C@H](NC(=O)[C@H](CCCCN)NC(=O)CNC(=O)[C@H](CC(C)C)NC(=O)[C@@H](NC(=O)[C@@H]1CSSC[C@H](N)C(=O)N[C@@H](CO)C(=O)N[C@@H](CC(N)=O)C(=O)N[C@@H](CC(C)C)C(=O)N[C@@H](CO)C(=O)N[C@@H]([C@@H](C)O)C(=O)N1)C(C)C)C(=O)N[C@@H](CO)C(=O)N[C@@H](CCC(N)=O)C(=O)N[C@@H](CCC(=O)O)C(=O)N[C@@H](CC(C)C)C(=O)N[C@@H](Cc1c[nH]cn1)C(=O)N[C@@H](CCCCN)C(=O)N[C@@H](CC(C)C)C(=O)N[C@@H](CCC(N)=O)C(=O)N[C@H](C(=O)N[C@@H](Cc1ccc(O)cc1)C(=O)N1CCC[C@H]1C(=O)N[C@@H](CCCNC(=N)N)C(=O)N[C@H](C(=O)N[C@@H](CC(N)=O)C(=O)N[C@H](C(=O)NCC(=O)N[C@@H](CO)C(=O)NCC(=O)N[C@H](C(=O)N1CCC[C@H]1C(N)=O)[C@@H](C)O)[C@@H](C)O)[C@@H](C)O)[C@@H](C)O` [(4d) subcutaneous, salmon calcitonin], the “Mean Peak Serum sCT ± SD” value came to 965 ± 848 pg/mL in data set [1] (Table 5, rats) and 273 ± 320 pg/mL in data set [1] (Table 6, rats).
In the case of `O=C([O-])CCCCCCCNC(=O)c1ccccc1[O-].[Na+].[Na+]` [SNAC - di], the “Mean Peak APTT (sec) ± SE” value in data set [2] is 300 ± 0 s. The “Mean Peak Factor Xa (IU · ml) ± SE” value in data set [3] was 2.81 ± 0.17 IU · ml.
With `O=C([O-])CCCCCCCCCNC(=O)c1ccccc1[O-].[Na+].[Na+]` [SNAD-di], the “Mean Peak Plasma Heparin Concentration (IU/ml) ± SE” value in data set [4] was found to be 1.21 ± 0.15 IU/ml.
`O=C([O-])CCCCCCCCCNC(=O)c1ccccc1O.[Na+]` [monosodium salt of SNAD, Monosodium N-(10-[2-hydroxybenzoyl]amino)decanoate]: in data set [5], the “Time after administration at which maximum averaged plasma heparin was reached” value turned out to be 2 h. For the same compound, the “Maximum averaged plasma heparin concentration” value in data set [5] (two capsules or two tablets) came out at 0.23±0.19 IU/mL. Besides, the “Mean Peak Plasma Heparin Concentration (IU/ml) ± SE” value in data set [4] came out at 0.88 ± 0.17 IU/ml.
Turning to “Mono-Sodium N-(8-[(2-hydroxybenzoyl]amino)caprylate [SNAC - mono]”, the “Mean Peak APTT (sec) ± SE” value in data set [2] was 247 ± 28.5 s.
